From paper PMC9571711, “New Biologically Hybrid Pharmacophore Thiazolidinone-Based Indole Derivatives: Synthesis, In Vitro Alpha-Amylase and Alpha-Glucosidase along with Molecular Docking Investigations” (Molecules, 2022) come the findings set out here.

SMILES strings stand for the structures.

Data set [1] concerns the target crude intestinal α-glucosidase. Kind of data set: In vitro alpha-glucosidase inhibition (p-nitrophenyl-α-D-glucopyranoside). In kind it is biochemical. The following applies: ± SEM. How it is done: 3.6. Alpha-glucosidase inhibition protocol
α-Glucosidase inhibitory activities was determined as per reported methods. 10 μL of test samples (5 mg/mL DMSO solution) were altered in 100 μL of 100 mM-phosphate buffer (pH 6.8) in 96-well microplate and incubated with 50 μL of crude intestinal α-glucosidase for 5 min before 50μL substrate (5 mM, p-nitrophenyl-α-D-glucopyranoside prepared in same buffer) was […]
plus384) for 5 min after incubation with substrate. Individual blanks for test samples were prepared to correct background absorban ce where substrate was replaced with 50μL of buffer.
Control sample contained 10 μL DMSO in place of test samples. Percentage of enzyme inhibition was calculated as (1-B/A) x 100 where A represents absorbance of control without test samples, and B represents absorbance in presence of test samples. […]

`O=C1N/C(=N/c2nccs2)S/C1=C\c1cc2[nH]ccc2c(Cl)c1[N+](=O)[O-]` [Compound 3]: the melting point is 235 to 237 °C. Further, in data set [1], the half-maximal inhibitory concentration (IC50) turned out to be 8.7 ± 0.2 µM.
For `O=C1N/C(=N/c2nccs2)S/C1=C/c1cc(F)c2cc[nH]c2c1` [Compound 4, (2Z,5E)-5-((4-fluoro-1H-indol-6-yl)methylene)-2-(thiazol-2-ylimino)thiazolidin-4-one], the melting point lay in the range of 237 to 239 °C. In addition, in data set [1], half-maximal inhibition (IC50) was put at 2.7 ± 0.7 µM.
Turning to `O=C1NC(=Nc2nccs2)SC1=Cc1cc2[nH]ccc2cc1F` [Compound 5, (2Z,5E)-5-((5-fluoro-1H-indol-6-yl)methylene)-2-(thiazol-2-ylimino)hiazolidine-4-one], the melting point lay within 234 to 236 °C.
As for `O=C1N/C(=N/c2nccs2)S/C1=C\c1cc(C(F)(F)F)c2cc[nH]c2c1O` [Compound 6], the melting point lay within 238 to 240 °C. This compound registered an IC50 in data set [1] of 4.5 ± 0.7 µM.
As to `O=C1N/C(=N/c2nccs2)S/C1=C\c1cc(O)c2cc[nH]c2c1O` [Compound 7], the melting point lay in the range of 238 to 241 °C. This compound also gave an IC50 in data set [1] of 3.5 ± 0.8 µM.
On the same counts, the results for `COc1cc2cc[nH]c2c(O)c1/C=C1\S/C(=N\c2nccs2)NC1=O` [Compound 8] are 238 to 241 °C and 8.7 ± 0.8 µM.
Take `CN(C)c1cc(/C=C2\S/C(=N\c3nccs3)NC2=O)cc2[nH]ccc12` [Compound 9]: the melting point was in the range of 234 to 237 °C. The IC50 in data set [1] is 23.2 ± 0.4 µM.
As to `N#Cc1cc(/C=C2\S/C(=N\c3nccs3)NC2=O)cc2[nH]ccc12` [Compound 10], the melting point is 239 to 242 °C. Also, the IC50 in data set [1] stood at 24.6 ± 0.2 µM.
With `O=C1N/C(=N/c2nccs2)S/C1=C\c1c(O)cc2cc[nH]c2c1Cl` [Compound 11], the melting point is 236 to 239 °C. In data set [1], the IC50 came out at 7.85 ± 0.2 µM.
For `O=C1N/C(=N/c2nccs2)S/C1=C\c1cc(O)c2cc[nH]c2c1Cl` [Compound 12], in that order: 236 to 239 °C and 9.1 ± 0.3 µM.
`O=C1N/C(=N/c2nccs2)S/C1=C\c1cc2[nH]ccc2c(Cl)c1Cl` [Compound 14] yielded a melting point of 231 to 233 °C. Besides, in data set [1], the IC50 came to 13.5 ± 0.4 µM.
For the compound `O=C1N/C(=N/c2nccs2)S/C1=C\c1cc2[nH]ccc2c(Cl)c1Br` [Compound 15], the melting point is 241 to 243 °C. In data set [1], this compound came in with an IC50 of 28.4 ± 0.8 µM.
Consider `O=C1N/C(=N/c2nccs2)S/C1=C\c1cc(Br)c2cc[nH]c2c1Cl` [Compound 16], for which the melting point lay within 240 to 242 °C. Also, in data set [1], the 50% inhibitory concentration (IC50) amounted to 26.7 ± 0.3 µM.
The compound `Cc1c(Br)c(/C=C2\S/C(=N\c3nccs3)NC2=O)cc2[nH]ccc12` [Compound 17] yielded a melting point of 242 to 245 °C. The compound further gave an IC50 in data set [1] of 31.5 ± 0.5 µM.
Regarding `Cc1c(/C=C2\S/C(=N\c3nccs3)NC2=O)cc2[nH]ccc2c1Br` [Compound 18], the melting point fell in the range of 239 to 242 °C. In data set [1], this compound displayed an IC50 of 23.3 ± 0.4 µM.
`O=C1N/C(=N/c2nccs2)S/C1=C\c1cccc(O)c1` [Compound 19] showed an IC50 in data set [1] of 19.8 ± 0.6 µM.
`O=C1N/C(=N/c2nccs2)S/C1=C\c1c(O)cc2cc[nH]c2c1Br` [Compound 20, (2Z,5Z)-5-((7-bromo-5-hydroxy-1H-indol-6-yl)methylene)-2-(thiazol-2-ylimino)thiazolidin-4-one] yielded a melting point of 234 to 237 °C. The compound also had an IC50 in data set [1] of 29.4 ± 0.9 µM.

Broadly, the melting point is the temperature, or range, at which the solid turns liquid. For orientation: IC50 means the midpoint of a concentration-inhibition curve.
